# Results from patent US12285448B2, “Bifidobacterium breve capable of relieving rheumatoid arthritis and application thereof” (Jiangnan University, priority 2020, dated 2025).
# What was measured:
# Assay type in all cases: in vivo, Wistar rats
# [1] = test system: rats with rheumatoid arthritis (type II collagen-induced arthritis model); assay: Body weight, joint thickness and clinical score of rats with type II collagen-induced arthritis; conditions: CIA rats
# Experimental: A Type II Collagen-induced arthritis (CIA) model is a classic RA animal model. The onset of CIA has many similarities with rheumatoid arthritis (RA), such as synovial hyperplasia, pannus formation, and cartilage destruction. At present, […]. Therefore, in Examples 5-9, a type II collagen-induced arthritis (CIA) model was used as an RA animal model, and LGG was used as a control.
# (§1) MRS liquid media (containing 0.05 g/100 mL cysteine) were respectively inoculated with the B. breve CCFM1078 obtained in Example 1 and LGG and anaerobically cultured at 37° C. for 18 h, and then transferred into fresh MRS liquid media (containing 0.05 g/100 mL cysteine) and cultured at same conditions for 24 h. Bacteria were centrifuged at 6000 g for 15 min, washed with 0.9 g/100 mL normal saline, and centrifuged again at 6000 g for 10 min to obtain the bacteria. The bacteria of the B. breve CCFM1078 and the LGG were resuspended to a cell concentration of 5×10^9 CFU/mL with sterile normal saline with a concentration of 0.9 g/100 mL, and bacterial solutions containing the B. breve CCFM1078 and the LGG were obtained.
# 60 7-week-old SPF (Specific Pathogen Free) female Wistar rats were raised at a room temperature of 22-24° C., a humidity of 40-60%, and an alternation of 12 h/12 h day and night. […]
# [2] = Content of short-chain fatty acids in the feces of rats with rheumatoid arthritis (GCMS); conditions: four weeks after booster immunization
# Experimental: as §1
# (§2) Sixty 7-week-old SPF (Specific Pathogen Free) female Wistar rats were raised at a room temperature of 22-24° C., a humidity of 40-60%, and an alternation of 12 h/12 h day and night. After being raised for 1 week under the condition of ad libitum, the rats were randomly divided into 5 groups with 12 rats in each group. The 5 groups were a normal group, a model group, a drug group administered with methotrexate by gavage, an LGG group administered with LGG by gavage, and a CCFM1078 group administered with B. breve CCFM1078 by gavage.
# The experiment was started after the rats were adaptively raised for one week, and lasted for eight weeks. During the two weeks before modelling, each rat in the normal group, the drug group and the model group was administered by gavage with 1.5 mL of sterile normal saline with a concentration of 0.9 g/100 mL per day, each rat in the LGG group was administered by gavage with 1.5 mL of an LGG bacterial solution with a concentration of 5×10^9 CFU/mL per day, and each rat in the CCFM1078 group was administered by gavage with 1.5 mL of a B. breve CCFM1078 bacterial solution with a concentration of 5×10^9 CFU/mL per day. The third week to the fourth week was a modelling period. On the first day of modelling, a bovine type II collagen solution (Chondrex, 20022) and a Freund's incomplete adjuvant (Chondrex, 7002) were mixed in equal volumes and emulsified to form a complete emulsion (the emulsion was prepared for immediate use, and the prepared emulsion was used within 1 h). A rat was anesthetized with isoflurane and immobilized, the whole rat tail root was disinfected with 75% (v/v) alcohol, and then the rat was subjected to primary immunization. In the primary immunization, 0.15 mL of the complete emulsion was accurately pipetted and injected subcutaneously at 1.5 cm from the tail root of the rat. One week later, booster immunization was conducted by the same treatment method, that is, 0.15 mL of the complete emulsion was accurately pipetted and injected subcutaneously at 2.0 cm from the tail root of the rat. The rats in the normal group were injected with only the same volume of sterile normal saline by the same method. […]
# [3] = test system: Th17 cells; assay: Proportion of Th17 cells in the mesenteric lymph nodes of rats with rheumatoid arthritis (flow cytometry); conditions: four weeks after booster immunization; model group 13.97 times the normal group
# Experimental: as §1, §2
# The experiment was started after the rats were adaptively raised for one week, and lasted for eight weeks. […]
# [4] = test system: IL-10; assay: Level of IL-10 in the serum of rats with rheumatoid arthritis (ELISA); conditions: four weeks after booster immunization; model group 1.64 ng/L, normal group 1.59 ng/L
# Experimental: as §1
# Sixty 7-week-old SPF (Specific Pathogen Free) female Wistar rats were raised at a room temperature of 22-24° C., a humidity of 40-60%, and an alternation of 12 h/12 h day and night. After being raised for 1 week under the condition of ad libitum, the rats were randomly divided into 5 groups with 12 rats in each group. […]
# Four weeks after the booster immunization, blood was collected and the rats were sacrificed. The rat serum was collected, and the level of IL-10 in the serum of the rats in each group were determined by an ELISA kit.
# [5] = test system: IL-1β; assay: Level of IL-1β in the serum of rats with rheumatoid arthritis (ELISA); conditions: four weeks after booster immunization; model group 835 ng/L, normal group 143 ng/L
# Experimental: as §1
# (§3) 60 7-week-old SPF (Specific Pathogen Free) female Wistar rats were raised at a room temperature of 22-24° C., a humidity of 40-60%, and an alternation of 12 h/12 h day and night. After being raised for 1 week under the condition of ad libitum, the rats were randomly divided into 5 groups with 12 rats in each group. […]
# (§4) Four weeks after the booster immunization, blood was collected and the rats were sacrificed. The rat serum was collected, and the levels of IL-1β and TNFα in the serum of the rats in each group were determined by an ELISA kit.
# [6] = test system: TNFα; assay: Level of TNFα in the serum of rats with rheumatoid arthritis (ELISA); conditions: four weeks after booster immunization; model group 14 ng/L, normal group 9.8 ng/L
# Experimental: as §1, §3, §4
structure (smiles),measurement,setting,value
"CN(Cc1cnc2nc(N)nc(N)c2n1)c1ccc(C(=O)N[C@@H](CCC(=O)O)C(=O)O)cc1 [methotrexate, Methotrexate]",paw thickness (comparison in words),[1]; FIG. 3,significantly lower than that of the rats in the model group and restored to normal in the last week
same,body weight change (trend),"[1]; gavage, after booster immunization, FIG. 2",not significant
same,content of acetic acid in the feces relative to the model group,[2],1.1 times
same,content of butyric acid in the feces relative to the model group,[2],1.3 times
same,content of isobutyric acid in the feces relative to the model group,[2],1.3 times
same,content of pentanoic acid in the feces relative to the model group,[2],1 times
same,content of propionic acid in the feces relative to the model group,[2],1.2 times
same,proportion of Th17 cells in the mesenteric lymph nodes relative to the model group,[3],12.7%
same,concentration of IL-10 in the serum,[4],1.62 ng/L
same,level of IL-1β in the serum,[5],159 ng/L
same,level of TNFα in the serum,[6],12 ng/L
